Values joined by “and” are separate entries in the source; they are usually repeats but may differ in a detail not shown here. Identical values can stand only once. Marks after values point to notes of the source that are not given here. Where a SMILES comes first, the peptide text is derived from it.
Test: Maximum Tolerated Dose (MTD) assessment, IV TID q8h: mortality, body weight, clinical observations
Format: in vivo, mouse
Set-up: key to Irritability / Hyperactivity / Inc. Startle / Inc. Touch / Dec. Startle Response / Dec. Touch Response / Inc. Exploration / Dec. Exploration / Pinna / Placing / Tremor / Dec. Spont. Activity / Straub Tail / Reactivity / Righting / Ataxia / Convulsion C.T.C-T / Low Limb Post / Abdominal Tone / Limb Tone / Grip Strength / Salivation F.V. / Lacrimation / Diarrhea / Body Temperature / Piloerection / Inc. Palpebral Size / Dec. Palpebral Size / Others / Death: “−” no effects; “±”: Slight to moderate effects; +: Severe effects; “C.”: Cyanosis; “D.”: Depth; E: Edema
Conditions: for Body Weight, individual animals No. 1-4 / Mortality (total number of deaths/total number of animals): IV
Method: Tolerability analysis was conducted to determine the upper limit of D-PLEUROCIDIN-KR dosage. Test article solutions were intravenously (IV) administered to immunocompetent ICR mice with the dose schedule and concentrations indicated in the study design in the table below.
The animals were not infected. Doses were IV administered thrice (TID) with 8 h intervals (q8h) between doses. Animals were humanely euthanized after 3 days of the last treatment or at humane endpoints.
The MTD assessment was performed with immunocompetent female ICR mice, weighing 22 f 2 g. All animals were specific pathogen free.
Test articles were administered to animals by IV injections following the dose schedule, volumes, and concentrations indicated the Table above for MTD study. […] Animals were humanely euthanized if severe acute toxicity was observed during the experimental period.
The adverse effects were monitored at 5 minutes via cage-side observation after each subsequent IV administration on Day 1. Animals were observed again for mortality at 72 h after the last treatment. Body weights were recorded before each treatment and at 72 h after the last treatment. If overt toxicity was observed after the 1st or 2nd dose of a group, the 2nd or 3rd dose of that group was not administered.
Any adverse events observed were summarized. List of scores from observation assessments were also recorded.

[1] = 5 mg/kg, TID q8h, 24 h of 3rd dosing
[2] = 5 mg/kg, TID q8h, 48 h of 3rd dosing
[3] = 5 mg/kg, TID q8h, 72 h of 3rd dosing
[4] = 10 mg/kg, 24 h of 3rd dosing (2nd and 3rd doses not administered)
[5] = 10 mg/kg, 48 h of 3rd dosing (2nd and 3rd doses not administered)
[6] = 10 mg/kg, 72 h of 3rd dosing (2nd and 3rd doses not administered)
[7] = AUTONOMIC, 5 mg/kg IV, 5 minutes after 1st dosing, ICR mice, animals No. 1-4
[8] = AUTONOMIC, 10 mg/kg IV, 5 minutes after 1st dosing, ICR mice, animals No. 1-4

For `CC(C)C[C@@H](NC(=O)[C@@H](Cc1ccc(O)cc1)NC(=O)[C@@H](Cc1c[nH]cn1)NC(=O)[C@H](NC(=O)[C@@H](CC(C)C)NC(=O)[C@@H](C)NC(=O)[C@@H](C)NC(=O)[C@@H](CCCNC(=N)N)NC(=O)CNC(=O)[C@H](NC(=O)[C@@H](Cc1c[nH]cn1)NC(=O)[C@@H](CCCNC(=N)N)NC(=O)CNC(=O)[C@H](NC(=O)[C@@H](Cc1c[nH]cn1)NC(=O)[C@@H](C)NC(=O)[C@@H](C)NC(=O)[C@@H](CCCNC(=N)N)NC(=O)[C@@H](CCCNC(=N)N)NC(=O)[C@@H](Cc1ccccc1)NC(=O)[C@@H](Cc1ccccc1)NC(=O)[C@@H](CO)NC(=O)CNC(=O)[C@@H](Cc1c[nH]c2ccccc12)NC(=O)CN)C(C)C)C(C)C)[C@H](C)O)C(N)=O` [D-pleurocidin-KR] (HELM PEPTIDE1{G.[dW].G.[dS].[dF].[dF].[dR].[dR].[dA].[dA].[dH].[dV].G.[dR].[dH].[dV].G.[dR].[dA].[dA].[dL].[dT].[dH].[dY].[dL].[am]}$$$$V2.0; N-terminus assumed), the “adverse effects after the first dose administration” value (5 mg/kg) was “severe cyanosis, labored respiration and edema”, the “Body Weight, individual animals No. 1-4” value (5 mg/kg, TID q8h, 1st dosing (recorded before treatment)) was 25 g (3×) and 23 g and the “Body Weight, individual animals No. 1-4” value (5 mg/kg, TID q8h, 2nd dosing) was 25 g (3×) and 23 g. For the same compound, the “Body Weight, individual animals No. 1-4” value (5 mg/kg, TID q8h, 3rd dosing) was 25 g and 24 g (2×) and 23 g, the “Body Weight, individual animals No. 1-4” value [1] was 26 g and 25 g (2×) and 23 g and the “Mortality (total number of deaths/total number of animals)” value [1] was 0/4. For the same compound, the “Body Weight, individual animals No. 1-4” value [2] was 25 g (3×) and 23 g, the “Mortality (total number of deaths/total number of animals)” value [2] was 0/4 and the “Body Weight, individual animals No. 1-4” value [3] was 26 g (3×) and 24 g. For the same compound, the “Mortality (total number of deaths/total number of animals)” value [3] was 0/4, the “Mortality (total number of deaths/total number of animals)” value (5 mg/kg, TID, q8h, 5 min of 1st dosing) was 0/4 and the “Mortality (total number of deaths/total number of animals)” value (5 mg/kg, TID, q8h, 5 min of 2nd dosing) was 0/4. For the same compound, the “Mortality (total number of deaths/total number of animals)” value (5 mg/kg, TID, q8h, 5 min of 3rd dosing) was 0/4, the “Mortality (total number of deaths/total number of animals)” value (5 mg/kg, TID, q8h, 1 h of 1st dosing) was 0/4 and the “Mortality (total number of deaths/total number of animals)” value (5 mg/kg, TID, q8h, 1 h of 2nd dosing) was 0/4. The “Mortality (total number of deaths/total number of animals)” value (5 mg/kg, TID, q8h, 1 h of 3rd dosing) was 0/4, the “mortality after the 1st dosing” value (10 mg/kg) was “one of the four animals was found dead” and the “Body Weight, individual animals No. 1-4” value (10 mg/kg, 1st dosing (recorded before treatment)) was 22 g (2×) and 23 g (2×). For the same compound, the “Body Weight, individual animals No. 1-4” value (10 mg/kg, 2nd dosing (2nd and 3rd doses not administered)) was 21 g (2×) and dead and 23 g, the “Body Weight, individual animals No. 1-4” value (10 mg/kg, 3rd dosing (2nd and 3rd doses not administered)) was 21* g (2×) and 23* g and the “Mortality (total number of deaths/total number of animals)” value (10 mg/kg, 5 min of 1st dosing) was 0/4. For the same compound, the “Mortality (total number of deaths/total number of animals)” value (10 mg/kg, 5 min of 2nd dosing (2nd and 3rd doses not administered)) was 1/4, the “Mortality (total number of deaths/total number of animals)” value (10 mg/kg, 5 min of 3rd dosing (2nd and 3rd doses not administered)) was 1/4 and the “Mortality (total number of deaths/total number of animals)” value (10 mg/kg, 1 h of 1st dosing) was 1/4. The “Mortality (total number of deaths/total number of animals)” value (10 mg/kg, 1 h of 2nd dosing (2nd and 3rd doses not administered)) was 1/4, the “Mortality (total number of deaths/total number of animals)” value (10 mg/kg, 1 h of 3rd dosing (2nd and 3rd doses not administered)) was 1/4 and the “Body Weight, individual animals No. 1-4” value [4] was 21* g (2×) and 24* g. The “Mortality (total number of deaths/total number of animals)” value [4] was 1/4, the “Body Weight, individual animals No. 1-4” value [5] was 21* g (2×) and 24* g and the “Mortality (total number of deaths/total number of animals)” value [5] was 1/4. For the same compound, the “Body Weight, individual animals No. 1-4” value [6] was 22* g (2×) and 23* g, the “Mortality (total number of deaths/total number of animals)” value [6] was 1/4 and the “tolerability i.v. in ICR mice” value (15 mg/kg/24h i.v. (data not shown)) was “tolerated”. For the same compound, the “Body Weight, individual animals No. 1-4” value (30 mg/kg, 1st dosing (recorded before treatment)) was 21 g and 22 g and 23 g and 24 g, the “Body Weight, individual animals No. 1-4” value (30 mg/kg, 2nd dosing) was “dead” and the “Mortality (total number of deaths/total number of animals)” value (30 mg/kg, 5 min of 1st dosing) was “All animals were found dead and 4/4”. The “Mortality (total number of deaths/total number of animals)” value (30 mg/kg, 1 h of 1st dosing) was “All dead”, the “Mortality (total number of deaths/total number of animals)” value (30 mg/kg, 1 h of 3rd dosing) was “All dead” and the tolerability (10 and 30 mg/kg dosages) was “not tolerated”. For the same compound, the “Body Temperature” value [7] was “−”, the Death [7] was “−” and the “Dec. Palpebral Size” value [7] was “−”. The Diarrhea [7] was “−”, the “Inc. Palpebral Size” value [7] was “−” and the Lacrimation [7] was “−”. The Others [7] was “E”, the Piloerection [7] was “−” and the Respiration [7] was “D±”. The “Salivation F.V.” value [7] was “−”, the “Skin Color” value [7] was “C±” and the “Body Temperature” value [8] was “−”. For the same compound, the Death [8] was “−” and the “Dec. Palpebral Size” value [8] was “−”.

From patent publication US20230047825A1, “ANTIMICROBIAL PEPTIDES” (priority 2019, published 2023)
